Test results as given in patent publication US12636284B2, “Compositions for use in the prevention and/or treatment of intellectual disability and neurodegenerative diseases in a subject with down syndrome” (UNIVERSITA' DEGLI STUDI DI ROMA “LA SAPIENZA”, priority 2021, dated 2026).

Assays:
DYRK1A protein = DYRK1A protein levels in primary hippocampal neurons isolated from Ts2Cje mice; assay type: cell-based, mouse; settings: 1, 5, 10 μM for 24 hours, vs untreated Ts2Cje
Procedure: For Western blots, 20 μg of proteins from the hippocampus of mice belonging to the four experimental groups were separated by 4-15% SDS-PAGE Criterion™ TGX (Tris-Glyicine eXtended) Stain-Free™ (Bio-rad, Hercules, CAUSE). This type of gel allows a rapid acquisition of the protein run in the ultraviolet (UV) by Chemidoc™ MP imaging systems (Bio-rad, Hercules, CA, USA). Therefore, the gel, once the image has been acquired, represents the total of the loaded proteins (Total Load), which will then be used to normalize the specific proteins to be examined. After electrophoresis and gel imaging, proteins are transferred via the semi-dry TransBlot Turbo apparatus (Bio-Rad Laboratories) onto nitrocellulose membranes (Bio-Rad, Hercules, CA, USA). Nitrocellulose membranes are blocked with 3% bovine serum albumin (BSA) in a solution of Tween 20-TBS and incubated overnight at 4° C. using specific primary antibodies: p(T216)-GSK3B (1:1000, Santa Cruz, #sc-135653), p(S9)-GSK3β (1:1000, Cell Signaling, #5558S), GSK3β (1:1000 Abcam, #93926) and DYRK1A (1:1000, Cell Signaling, #8765S), MAPK44/42 (1:1000, Cell Signaling, #9102), p(Thr202/Tyr204)-MAPK44/42 (1 1000, Cell Signaling, #9101), Akt (1:2000, Bio-Rad, # vma00253K), p(S473) Akt (1:1000, Cell Signaling, #4060S). After three washes with a T-TBS buffer solution, membranes were incubated for 1 hour at room temperature with the secondary antibodies. Secondary antibodies with peroxidase activity are anti-mouse or anti-rabbit (1:5000, Bio-rad, Hercules, CA, USA). Membranes were developed using Clarity Enhanced Chemiluminescence (ECL), a chemiluminescent substrate (Bio-rad, Hercules, CA, USA) and acquired with Chemidoc Mp (Bio-rad, Hercules, CA, USA). Finally, the results obtained were analyzed using the ImageLab program (Bio-rad, Hercules, CA, USA).
In order to isolate primary hippocampal neurons, hippocampi from Ts and euploid mice were mechanically dissociated in PBS (with Ca^2+ and Mg^2−) and centrifuged (3 minutes, 1100 rpm, 25° C.). […]

GSK3b protein = assay: GSK3b activation (pSer9/pTyr216 ratio) in primary hippocampal neurons isolated from Ts2Cje mice; assay type: cell-based, mouse; settings: 1, 5, 10 μM for 24 hours
Procedure: For Western blots, 20 μg of proteins from the hippocampus of mice belonging to the four experimental groups were separated by 4-15% SDS-PAGE CriterionTM […] (Bio-rad, Hercules, CAUSE). […] Therefore, the gel, once the image has been acquired, represents the total of the loaded proteins (Total Load), which will then be used to normalize the specific proteins to be examined. After electrophoresis and gel imaging, proteins are transferred via the semi-dry TransBlot Turbo apparatus (Bio-Rad Laboratories) onto nitrocellulose membranes (Bio-Rad, Hercules, CA, USA). Nitrocellulose membranes are blocked with 3% bovine serum albumin (BSA) in a solution of Tween 20-TBS and incubated overnight at 4° C. using specific primary antibodies: p([…])-GSK3B (1:1000, Santa Cruz, #sc-135653), p(S9)-GSK3β (1:1000, Cell Signaling, #5558S), GSK3β (1:1000 Abcam, #93926) and DYRK1A (1:1000, Cell Signaling, #8765S), MAPK44/42 (1:1000, Cell Signaling, #9102), p[…])-MAPK44/42 (1 1000, Cell Signaling, #9101), Akt (1:2000, Bio-Rad, # vma00253K), p(S473) Akt (1:1000, Cell Signaling, #4060S). After three washes with a T-TBS buffer solution, membranes were incubated for 1 hour at room temperature with the secondary antibodies. Secondary antibodies with peroxidase activity are anti-mouse or anti-rabbit (1:5000, Bio-rad, Hercules, CA, USA). […] Finally, the results obtained were analyzed using the ImageLab program (Bio-rad, Hercules, CA, USA). […] In order to isolate primary hippocampal neurons, hippocampi from Ts and euploid mice were mechanically dissociated in PBS (with Ca^2+ and […]) and centrifuged (3 minutes, 1100 rpm, 25° C.). Subsequently, the pellet was resuspended in 0.25% trypsin solution and centrifuged further for 3 minutes at 1100 rpm at Tamb. At this point, the cell extract was resuspended in MEM 1 culture medium (Minimum Essential Medium complemented with fetal bovine serum (FBS-1%), L-glutamine 200 mM (1%), glucose 25 mM (1%), gentamicin 0.1 mg/ml) and centrifuged for 10 minutes, 1100 rpm at 25° C. […]

Compound | levels of the DYRK1A protein in Ts2Cje neurons (DYRK1A protein) | activity of the GSK3B protein in Ts2Cje neurons (GSK3b protein)
N#C[C@@H]1CCCN1C(=O)CNC12CC3CC(CC(O)(C3)C1)C2 [vildagliptin] | significant reduction | significant increase
Cn1c(=O)cc(N2CCC[C@@H](N)C2)n(Cc2ccccc2C#N)c1=O [alogliptin] | significant reduction | significant increase
